{
  "source": "paper PMC5841658",
  "about": "“Anti-cancer characteristics and ototoxicity of platinum(II) amine complexes with only one leaving ligand” (PLoS ONE, 2018)",
  "tested_on": "zebrafish utricle hair cells",
  "assay": "Hair cell quantification, utricle",
  "type": "in vivo, Danio rerio",
  "settings": "extrastriolar (E1-E3) and striolar (S1-S3) regions, 25 mg/kg i.p., 48 hours",
  "description": "Zebrafish (Danio rerio) were purchased from a commercial supplier (Segrest Farms, Gibsonton, FL) and maintained in the animal facility of Western Kentucky University according to a protocol approved by the Institutional Animal Care and Use Committee. All zebrafish used in this study were a mix of male and female adult animals at least 6 months of age and were maintained according to standard methods.\nZebrafish were sedated with tricaine methanesulfonate (MS-222, Argent, Redmond, WA), weighed, and then intraperitoneally microinjected with 25 mg/kg body weight of platinum test compound or an equivalent volume of vehicle (0.9% NaCl) control using a 35 gauge syringe operated by a Micro4 microsyringe pump controller (World Precision Instruments, Sarasota, FL). After injection, fish were returned to holding tanks for either 24 or 48 hours and then subjected to hearing tests followed by hair cell quantification analysis. […]\nGraphPad Prism v6 (La Jolla, CA) was used for all statistical analysis. Nuclear fraction platinum uptake as a total percent of combined nuclear and cytosolic uptake was analyzed using a one-way ANOVA (Brown-Forsyth test; p ≤ 0.05). IC50 values were calculated in Prism using the sigmoidal, 4PL, x is log(concentration) analysis feature or were calculated from Prism derived values using the equation y = mx + b. […]",
  "data": [
    {"smiles": "[Cl][Pt-2]12[NH2+]CC[NH+]1CC[NH2+]2", "note": "(stereo not shown) [[Pt(dien)Cl]^+, Pt(diethylenetriamine)Cl]", "values": [
      {"measurement": "effect on utricle hair cell density compared to vehicle", "result": "one elevated mean hair cell density count at S2"}
    ]}
  ]
}
